Source: patent publication US12295936B2, “Immunomodulating urea azalides” (Zoetis Services LLC, priority 2020, dated 2025)

Assays:
P. multocida = assay: Murine P. multocida intranasal challenge study with lung tissue RNA sequence analysis; assay type: in vivo, mice
Procedure: In one murine P. multocida intranasal challenge study, mice were administered tulathromycin (16 mg/kg; T02), M9 (32 mg/kg; T03), or ceftiofur (9 mg/kg; T04) by subcutaneous injection 18 hours after bacterial challenge (5×10^3 CFU/mouse) for lung tissue RNA sequence analysis. Survival at Day 7 was about 80%, 50%, and 90% for T02, T03, and T04, respectively, compared to placebo at 0%. Differential gene expression from total lung tissue RNA sequence analysis indicated at least 226 unique genes were up or down regulated (with significance) for T03. Output from ingenuity pathway analysis of these unique genes predicted major upstream regulators of the involved pathways. Data was analyzed based on the number of genes being modulated in the same direction that were associated with a given upstream regulator. An activation z-score of 2 or greater is considered significant and the direction change is indicated by +(activated) or − (inhibited). The top 5 pathways included: IL-9 signaling, glucocorticoid receptor signaling, prolactin signaling, JAK STAT signaling, and IL-17 signaling. The top 6 upstream regulators (activation z-score) included: lipopolysaccharide (−6.725), TNF (−4.669), IFNG (−5.759), IL-1β (−5.947), STAT1 (−2.787), and poly rl:rC-RNA (−5.289). Even though this study was run in the murine model, the top upstream regulators identified as being modulated by M9 include an almost ubiquitous overlap with the pathways identified in the natural disease study as being key mediators in BRD, and therefore is modulating highly relevant pathways in BRD pathobiology.

LCN2 = LCN2 (Bos taurus, UniProt A0AAA9TIZ6); assay: Surface plasmon resonance (SPR) drug/target affinity; assay type: binding; settings: biologically relevant pH
Sequence of LCN2 (A0AAA9TIZ6 entry or part of it): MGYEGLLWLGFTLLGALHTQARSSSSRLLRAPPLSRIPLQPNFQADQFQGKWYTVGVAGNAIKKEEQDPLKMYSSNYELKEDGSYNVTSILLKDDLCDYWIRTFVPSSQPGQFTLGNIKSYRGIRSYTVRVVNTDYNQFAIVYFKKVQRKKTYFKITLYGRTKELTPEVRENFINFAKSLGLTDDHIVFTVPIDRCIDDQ
Source text: (§1) In order to add further clarity to binding partner identification, surface plasma resonance (SPR) technology was used. […] These targets were unique to this drug class compared to gamithromycin, a macrolide antibiotic used in the treatment of BRD. Both targets fit the paradigm that the immunological mechanism of action is linked to the pathways that are both of key importance as being dysregulated in BRD and modulated by M9. LCN2 is expressed by neutrophils upon activation of toll-like receptors (TLRs) and is a component of the innate inflammatory response. […] Very little information exists to date on SLAMF9. It is a member of a family of signal adaptor proteins that is thought to lack signal transduction capabilities.
(§2) KD is the equilibrium dissociation constant that was used to present the drug/target affinity. The identified targets associated with drug were measured by surface plasmon resonance (SPR) to define the KD.

NLRX1 = assay: as above; assay type: binding
Source text: as §1, §2

LPO = LPO (Bos taurus, UniProt P80025); assay: as above; assay type: binding
Source text: as §1, §2

TLR4 = assay: as above; assay type: binding
Source text: as §1, §2

SLAMF9 = SLAMF9 (Bos taurus, UniProt E1BNF9); assay: as above; assay type: binding; settings: biologically relevant pH
Sequence of SLAMF9 (E1BNF9 entry or part of it): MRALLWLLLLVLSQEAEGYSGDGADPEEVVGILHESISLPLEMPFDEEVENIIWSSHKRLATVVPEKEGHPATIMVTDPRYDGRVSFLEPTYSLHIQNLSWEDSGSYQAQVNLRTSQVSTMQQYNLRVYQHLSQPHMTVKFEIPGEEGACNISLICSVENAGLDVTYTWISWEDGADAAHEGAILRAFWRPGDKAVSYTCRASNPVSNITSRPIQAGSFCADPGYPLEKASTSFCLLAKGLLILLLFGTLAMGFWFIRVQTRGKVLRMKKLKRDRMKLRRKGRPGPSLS
Source text: as §1, §2

[1] = M9 32 mg/kg (T03), ingenuity pathway analysis, − = inhibited

For `CCCNC[C@]1(O)[C@H](C)O[C@@H](O[C@H]2[C@H](C)[C@@H](O[C@@H]3O[C@H](C)C[C@H](NC)[C@H]3O)[C@](C)(O)C[C@@H](C)CN[C@H](C)[C@@H](O)[C@](C)(O)[C@@H](CC)OC(=O)[C@@H]2C)C[C@@]1(C)OC` [Example M9, (2R,3S,4R,5R,8R,10R,11R,12S,13S,14R)-2-ethyl-3,4,10-trihydroxy-13-(((2R,4R,5S,6S)-5-hydroxy-4-methoxy-4,6-dimethyl-5-((propylamino)methyl)-tetrahydro-2H-pyran-2-yl)oxy)-11-(((2S,3R,4S,6R)-3-hydroxy-6-methyl-4-(methylamino)tetrahydro-2H-pyran-2-yl)oxy)-3,5,8,10,12,14-hexamethyl-1-oxa-6-azacyclopentadecan-15-one, reference compound], the “unique genes up or down regulated (with significance), total lung tissue RNA sequence analysis” value (P. multocida; M9 32 mg/kg (T03)) was “at least 226”, the “activation z-score, upstream regulator IFNG” value (P. multocida; [1]) was −5.759 and the “activation z-score, upstream regulator IL-1β” value (P. multocida; [1]) was −5.947. For the same compound, the “activation z-score, upstream regulator STAT1” value (P. multocida; [1]) was −2.787, the “activation z-score, upstream regulator TNF” value (P. multocida; [1]) was −4.669 and the “activation z-score, upstream regulator lipopolysaccharide” value (P. multocida; [1]) was −6.725. For the same compound, the “activation z-score, upstream regulator poly rl:rC-RNA” value (P. multocida; [1]) was −5.289, the “Survival at Day 7” value (P. multocida; subcutaneous 18 hours after challenge (5×10^3 CFU/mouse): tulathromycin 16 mg/kg, M9 32 mg/kg, ceftiofur 9 mg/kg, placebo 0%) was about 50% and the “drug/target binding, LCN2” value (LCN2) was “direct binding targets”. For the same compound, the “drug/target binding, NLRX1” value (NLRX1) was “Indirect”, the Interaction type (LPO) was “Indirect” and the “Interaction KD (M)” value (TLR4) was “Indirect”. The “drug/target binding, SLAMF9” value (SLAMF9) was “direct binding targets”.
